Data published in PMC3913857, “Regorafenib in Japanese patients with solid tumors: phase I study of safety, efficacy, and pharmacokinetics” (Investigational New Drugs, 2013).

Experiment: clinical
Parameters: species or system Japanese patients
Conditions: in vivo
Experimental: Patients who provided at least one evaluable pharmacokinetic sample were eligible for pharmacokinetic analyses.
Plasma concentrations of regorafenib and its metabolites were determined by fully validated liquid chromatography–tandem mass spectrometry after protein precipitation with acetonitrile/ammonium acetate buffer containing the internal standards [^2H3 ^15N] BAY 73-4506 (for regorafenib), [^2H3 ^15N] […] BAY 81-8752 (for the M5 metabolite).

AUC from 0 to 24 h of metabolite as share of regorafenib (human): 47.3%
t 1/2 (terminal half life) (human): 29.5 (24.1) h
t max (human): 4.3 (0.6–47.9) h
AUC (human, po, 160 mg): 7,820.6 (301.2) μg.h/L
AUC0–24 (human, po, 160 mg): 3,697.2 (340.5) μg.h/L
C max (human, po, 160 mg): 273.3 (388.9) μg/L
t 1/2 (terminal half life) (human, po, 160 mg): 24.8 (27.7) h
Change in t max and t 1/2 between single dosing and 21-day multiple dosing: no significant change
SMILES: CNC(=O)c1cc(Oc2ccc(NC(=O)Nc3ccc(Cl)c(C(F)(F)F)c3)c(F)c2)cc[n+]1[O-] [M2]
